The results in this text go back to patent US11111237B2, “Bicyclic compound and use thereof” (SK BIOPHARMACEUTICALS CO., LTD., priority 2019, dated 2021).

Structures can show the parent of a compound that is named as a salt.

Sequence of PRMT5-MEP50 enzyme complex (O14744 2-637): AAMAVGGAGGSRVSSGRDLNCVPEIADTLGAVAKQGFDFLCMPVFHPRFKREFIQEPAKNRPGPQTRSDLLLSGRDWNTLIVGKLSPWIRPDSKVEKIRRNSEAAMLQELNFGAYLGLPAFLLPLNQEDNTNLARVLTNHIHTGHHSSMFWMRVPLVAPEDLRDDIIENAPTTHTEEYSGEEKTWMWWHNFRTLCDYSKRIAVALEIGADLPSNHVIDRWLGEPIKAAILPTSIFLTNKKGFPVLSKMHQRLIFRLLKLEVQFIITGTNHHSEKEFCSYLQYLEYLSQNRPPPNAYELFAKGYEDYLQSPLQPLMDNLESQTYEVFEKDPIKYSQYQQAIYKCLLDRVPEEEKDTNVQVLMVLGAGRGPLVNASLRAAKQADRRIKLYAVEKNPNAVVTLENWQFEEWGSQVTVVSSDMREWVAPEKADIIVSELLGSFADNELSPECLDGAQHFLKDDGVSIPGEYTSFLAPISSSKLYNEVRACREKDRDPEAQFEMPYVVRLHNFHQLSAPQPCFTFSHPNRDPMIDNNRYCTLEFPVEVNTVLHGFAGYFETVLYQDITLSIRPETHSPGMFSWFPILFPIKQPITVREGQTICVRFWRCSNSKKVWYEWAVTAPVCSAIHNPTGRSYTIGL
Sequence of PRMT5-MEP50 enzyme complex (Q9BQA1 2-342 partner): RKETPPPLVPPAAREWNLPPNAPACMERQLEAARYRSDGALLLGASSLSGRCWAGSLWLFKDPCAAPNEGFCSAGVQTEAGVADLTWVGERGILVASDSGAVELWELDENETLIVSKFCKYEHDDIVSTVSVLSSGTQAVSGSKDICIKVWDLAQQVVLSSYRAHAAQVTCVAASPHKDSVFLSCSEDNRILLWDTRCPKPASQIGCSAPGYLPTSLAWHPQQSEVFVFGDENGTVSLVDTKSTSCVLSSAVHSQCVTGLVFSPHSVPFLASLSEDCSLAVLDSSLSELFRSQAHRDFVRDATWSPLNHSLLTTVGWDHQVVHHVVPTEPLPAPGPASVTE

The target in this assay is PRMT5-MEP50 enzyme complex (Homo sapiens (Human), UniProt O14744). Nature of the assay: PRMT5 enzyme activity in vitro assay (methylation of histone H4R3, ELISA absorbance at 450 nm). It is filed as biochemical. The conditions noted are these: SAM, histone H4 peptide, room temperature 2 hours, 8 points from 10 μM to 0.128 nM. The method, then:
Method for Measuring Enzyme Activity
In vitro assay: PRMT5-MEP50 enzyme complex, cofactor S-adenosylmethionine (SAM) and histone H4 peptide were reacted in vitro, and methylation of arginine (H4R3)—which is the third amino acid of histone H4—was measured in order to measure the enzyme activity of PRMT5.
Reagents: PRMT5-MEP50 enzyme complex (Catalog No. 51045), blocking buffer (52100-B), histone methyltransferase reaction buffer 2 (4×HMT assay buffer 2, Catalog No. 52170), and primary antibody (primary antibody 4-3, Catalog No. 52150) were purchased from BPS Bioscience (USA). The histone H4 peptide (1-20 amino acids) was custom made by Komabiotech (Korea) and used. S-adenosylmethionine was purchased from NEB (New England Biolabs, USA, Catalog No. B9003S). Plates for coating histone H4 peptide, washing buffer and color development reagent were purchased from the following vendors: Plate (Immobilizer™-Amino Plate, NUNC, Denmark, Catalog No. 436023), carbonate-bicarbonate buffer (Sigma-Aldrich, USA, Catalog No. C3041), washing buffer (10×TBST, Biosesang, Korea, Catalog No. T2005), TMB ELISA substrate (Abcam, UK, Catalog No. ab210902), horseradish peroxidase (HRP)-conjugated antibody (Abcam, UK, Catalog No. ab6721).
Experimental procedure: The histone H4 peptide was diluted with carbonate-bicarbonate buffer and prepared to 100 μg/mL, and then dispensed onto the plate per 100 μL and reacted at 37° C. for 1 hour. PRMT5-MEP50 enzyme complex and S-adenosylmethionine were diluted with histone methyltransferase reaction buffer to prepare 5 μg/mL and 2 μM, respectively, and then 20 μL of PRMT5-MEP50 enzyme complex and 25 μL of S-adenosylmethionine were dispensed onto the plate prepared above. 5 μL of the compound diluted with 10% dimethyl sulfoxide solution was added thereto and reacted at room temperature for 2 hours (final volume=50 μL). The concentration of the compound was diluted 1:5 from 10 μM until the lowest concentration of 0.128 nM, and 8 points were used for the test. After preparing the primary antibody by diluting 1:2000 with blocking buffer, 100 μL was added to the plate and reacted at room temperature for 1 hour. After preparing horseradish peroxidase-conjugated antibody by diluting 1:10,000 with blocking buffer, 100 μL was added to the plate and reacted at room temperature for 1 hour. 100 μL of TMB substrate was added and reacted for 3 minutes at room temperature, and 100 μL of 1 N sulfuric acid was then added to terminate the reaction. Then, the absorbance at 450 nm was measured to calculate the IC50 value of the compound. (+++: 1 to 100 nM, ++: greater than 100 to 1,000 nM, +: greater than 1,000 to 10,000 nM)
Consider `N#CCN1CCC(Oc2ccc3c(c2)OCCN(C[C@H](O)CN2CCc4ccccc4C2)C3=O)CC1` [Example 159], for which the IC50 (in general, the concentration needed to halve the response being measured) is 100 to 1000 nM.

Take `O=C(c1ccc2c(c1)OCCN(C[C@H](O)CN1CCc3ccccc3C1)C2=O)N1CCC(F)(F)C1` [Example 177, 8-(3,3-difluoropyrrolidin-1-carbonyl)-4-[(2R)-3-(3,4-dihydro-1H-isoquinolin-2-yl)-2-hydroxy-propyl]-2,3-dihydro-1,4-benzoxazepin-5-one]: the IC50 was 100 to 1000 nM.

`CCN1CCC(Oc2ccc3c(c2)N(C)CCN(C[C@H](O)CN2CCc4ccccc4C2)C3=O)CC1` [Example 126, 4-[(2R)-3-(3,4-dihydro-1H-isoquinolin-2-yl)-2-hydroxy-propyl]-8-[(1-ethyl-4-piperidyl)oxy]-1-methyl-2,3-dihydro-1,4-benzodiazepin-5-one]: the IC50 was in the range of 100 to 1000 nM.

In turn, `CC(=O)N1CC(Oc2ccc3c(c2)OCCN(C[C@H](O)CN2CCc4ccccc4C2)C3=O)C1` [Example 83, 8-(1-acetylazetidin-3-yl)oxy-4-[(2R)-3-(3,4-dihydro-1H-isoquinolin-2-yl)-2-hydroxy-propyl]-2,3-dihydro-1,4-benzoxazepin-5-one] registered an IC50 of 100 to 1000 nM.

Compound `CN1CCC(Oc2ccc3c(n2)OC(C)(C)CN(C[C@H](O)CN2CCc4ccccc4C2)C3=O)CC1` [Example 145, 4-[(2R)-3-(3,4-dihydro-1H-isoquinolin-2-yl)-2-hydroxypropyl]-2,2-dimethyl-8-[(1-methyl-4-piperidyl)oxy]-3H-pyrido[3,2-f][1,4]oxazepin-5-one] showed an IC50 of 100 to 1000 nM.

With `COC1CCN(Cc2ccc3c(c2)OCCN(C[C@H](O)CN2CCc4ccccc4C2)C3=O)CC1` [Example 38, 4-[(2R)-3-(3,4-dihydro-1H-isoquinolin-2-yl)-2-hydroxy-propyl]-8-[(4-methoxy-1-piperidyl)methyl]-2,3-dihydro-1,4-benzoxazepin-5-one], the IC50 was 100 to 1000 nM.

For `O=C1c2ccc(OCc3ccnc(F)c3)cc2OCCN1C[C@H](O)CN1CCc2ccccc2C1` [Example 58, 4-[(2R)-3-(3,4-dihydro-1H-isoquinolin-2-yl)-2-hydroxy-propyl]-8-[(2-fluoro-4-pyridyl)methoxy]-2,3-dihydro-1,4-benzoxazepin-5-one], the IC50 is 1 to 100 nM.

Regarding `O=C1c2ccc(CN3CCCCC3CO)cc2OCCN1C[C@H](O)CN1CCc2ccccc2C1` (stereo partly drawn) [Example 41, 4-[(2R)-3-(3,4-dihydro-1H-isoquinolin-2-yl)-2-hydroxy-propyl]-8-[[2-(hydroxymethyl)-1-piperidyl]methyl]-2,3-dihydro-1,4-benzoxazepin-5-one], the IC50 was 100 to 1000 nM.

Regarding `CN(C)Cc1ccc2c(c1)OCCN(C[C@H](O)CN1CCc3ccccc3C1)C2=O` [Example 25, 4-[(2R)-3-(3,4-dihydro-1H-isoquinolin-2-yl)-2-hydroxy-propyl]-8-[(dimethylamino)methyl]-2,3-dihydro-1,4-benzoxazepin-5-one], the IC50 was 100 to 1000 nM.

The compound `COC[C@@H]1CCCN1Cc1ccc2c(c1)OCCN(C[C@H](O)CN1CCc3ccccc3C1)C2=O` [Example 49, 4-[(2R)-3-(3,4-dihydro-1H-isoquinolin-2-yl)-2-hydroxy-propyl]-8-[[(2S)-2-(methoxymethyl)pyrrolidin-1-yl]methyl]-2,3-dihydro-1,4-benzoxazepin-5-one] displayed an IC50 of 100 to 1000 nM.

`CN1CCCC(Oc2ccc3c(c2)N(C)CCN(C[C@H](O)CN2CCc4ccccc4C2)C3=O)C1` (stereo partly drawn) [Example 130, 4-[(2R)-3-(3,4-dihydro-1H-isoquinolin-2-yl)-2-hydroxy-propyl]-1-methyl-8-[(1-methyl-3-piperidyl)oxy]-2,3-dihydro-1,4-benzodiazepin-5-one] gave an IC50 of 100 to 1000 nM.

With `COCCN1CCC(Oc2ccc3c(n2)OC(C)(C)CN(C[C@H](O)CN2CCc4ccccc4C2)C3=O)CC1` [Example 262, 4-[(2R)-3-(3,4-dihydro-1H-isoquinolin-2-yl)-2-hydroxy-propyl]-8-[[1-(2-methoxyethyl)-4-piperidyl]oxy]-2,2-dimethyl-3H-pyrido[3,2-f][1,4]oxazepin-5-one], the IC50 is 100 to 1000 nM.

`CC(c1ccc2c(n1)OC(C)(C)CN(C[C@H](O)CN1CCc3ccccc3C1)C2=O)N1CCOCC1` (stereo partly drawn) [Example 246, 4-[(2R)-3-(3,4-dihydro-1H-isoquinolin-2-yl)-2-hydroxy-propyl]-2,2-dimethyl-8-(1-morpholinoethyl)-3H-pyrido[3,2-f][1,4]oxazepin-5-one] displayed an IC50 of 100 to 1000 nM.

`CC(C)Cc1ccc2c(c1)OCCN(C[C@H](O)CN1CCc3ccccc3C1)C2=O` [Example 12, 4-[(2R)-3-(3,4-dihydro-1H-isoquinolin-2-yl)-2-hydroxy-propyl]-8-isobutyl-2,3-dihydro-1,4-benzoxazepin-5-one] registered an IC50 of 1 to 100 nM.

Take `O=C1c2ccc(CN3CCC(F)(F)CC3)cc2OCCN1C[C@H](O)CN1CCc2ccccc2C1` [Example 31, 8-[(4,4-difluoro-1-piperidyl)methyl]-4-[(2R)-3-(3,4-dihydro-1H-isoquinolin-2-yl)-2-hydroxy-propyl]-2,3-dihydro-1,4-benzoxazepin-5-one]: the IC50 was in the range of 1 to 100 nM.

The compound `C[C@@H]1CN(C[C@H](O)CN2CCc3ccccc3C2)C(=O)c2ccc(CN3CCC4(CC3)COC4)cc2O1` [Example 252, (2R)-4-[(2R)-3-(3,4-dihydro-1H-isoquinolin-2-yl)-2-hydroxypropyl]-2-methyl-8-(2-oxa-7-azaspiro[3.5]nonan-7-ylmethyl)-2,3-dihydro-1,4-benzoxazepin-5-one] returned an IC50 of 100 to 1000 nM.

The compound `CC1CN(C(=O)c2ccc3c(c2)OCCN(C[C@H](O)CN2CCc4ccccc4C2)C3=O)CCO1` (stereo partly drawn) [Example 190, 4-[(2R)-3-(3,4-dihydro-1H-isoquinolin-2-yl)-2-hydroxy-propyl]-8-(2-methylmorpholin-4-carbonyl)-2,3-dihydro-1,4-benzoxazepin-5-one] had an IC50 of 100 to 1000 nM.

As for `CN1CCN(C[C@H](O)CN2CCc3ccccc3C2)C(=O)c2ccc(OC3CCNCC3F)cc21` (stereo partly drawn) [Example 135, 4-[(2R)-3-(3,4-dihydro-1H-isoquinolin-2-yl)-2-hydroxy-propyl]-8-[(3-fluoro-4-piperidyl)oxy]-1-methyl-2,3-dihydro-1,4-benzodiazepin-5-one; dihydrochloride], the IC50 was 100 to 1000 nM.

`O=C1c2ccc(Cl)nc2OCCN1C[C@H](O)CN1CCc2ccccc2C1` [Example 153, 8-chloro-4-[(2R)-3-(3,4-dihydro-1H-isoquinolin-2-yl)-2-hydroxy-propyl]-2,3-dihydropyrido[3,2-f][1,4]oxazepin-5-one] registered an IC50 of 100 to 1000 nM.

Compound `CC(=O)N1CCC(Oc2ccc3c(c2)N(C)CCN(C[C@H](O)CN2CCc4ccccc4C2)C3=O)CC1` [Example 121, 8-[(1-acetyl-4-piperidyl)oxy]-4-[(2R)-3-(3,4-dihydro-1H-isoquinolin-2-yl)-2-hydroxy-propyl]-1-methyl-2,3-dihydro-1,4-benzodiazepin-5-one] showed an IC50 of 100 to 1000 nM.

`O=C1c2ccc(OCc3cccnc3)cc2OCCN1C[C@H](O)CN1CCc2ccccc2C1` [Example 56, 4-[(2R)-3-(3,4-dihydro-1H-isoquinolin-2-yl)-2-hydroxy-propyl]-8-(3-pyridylmethoxy)-2,3-dihydro-1,4-benzoxazepin-5-one] had an IC50 of 100 to 1000 nM.

As to `O=C1c2ccccc2OCCN1C[C@H](O)CN1CCc2ccccc2C1` [Example 149, 4-[(2R)-3-(3,4-dihydro-1H-isoquinolin-2-yl)-2-hydroxy-propyl]-2,3-dihydro-1,4-benzoxazepin-5-one], the IC50 is 100 to 1000 nM.

In the case of `CC1COCC(C)N1C(=O)c1ccc2c(c1)OC(C)(C)CN(C[C@H](O)CN1CCc3ccccc3C1)C2=O` (stereo partly drawn) [Example 205, 4-[(2R)-3-(3,4-dihydro-1H-isoquinolin-2-yl)-2-hydroxy-propyl]-8-(3,5-dimethylmorpholin-4-carbonyl)-2,2-dimethyl-3H-1,4-benzoxazepin-5-one], the IC50 lay within 100 to 1000 nM.

Take `CCN1CCC(COc2ccc3c(c2)OCCN(C[C@H](O)CN2CCc4ccccc4C2)C3=O)CC1` [Example 103, 4-[(2R)-3-(3,4-dihydro-1H-isoquinolin-2-yl)-2-hydroxy-propyl]-8-[(1-ethyl-4-piperidyl)methoxy]-2,3-dihydro-1,4-benzoxazepin-5-one]: the IC50 lay within 100 to 1000 nM.
